According to ChEMBL document CHEMBL1201862, “PubChem BioAssay data set” (2004):
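Briefly, cells in 96-well plates were exposed to five compound concentrations for 48 h, and endpoints were estimated by linear interpolation. GI50 = concentration required for 50% inhibition of growth.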 Activity calls are given as the source filed them. Cut-off read from the data, not from the text of the source: active = GI50 up to about 1.1 µM and inactive = higher.

Columns and labels:
Assay in all cases: DTP human tumour cell line panel, 48 h
SF-268 = test system: SF-268
786-0 = test system: 786-0
MDA-N = test system: MDA-N
SNB-19 = test system: SNB-19
UACC-257 = test system: UACC-257
OVCAR-5 = test system: OVCAR-5
TK-10 = test system: TK-10
COLO 205 = test system: COLO 205
XF498 = test system: XF498
Malme-3M = test system: Malme-3M
NCI-H226 = test system: NCI-H226
RPMI-8226 = test system: RPMI-8226
EKVX = test system: EKVX
DLD-1 = test system: DLD-1
OVCAR-4 = test system: OVCAR-4
U-251 = test system: U-251
KM-20L2 = test system: KM-20L2
OVCAR-3 = test system: OVCAR-3
DMS-114 = test system: DMS-114
MDA-MB-435 = test system: MDA-MB-435
A498 = test system: A498
SK-MEL-28 = test system: SK-MEL-28
MOLT-4 = test system: MOLT-4
Hs-578T = test system: Hs-578T
BT-549 = test system: BT-549
PC-3 = test system: PC-3
RXF 393 = test system: RXF 393
LOX IMVI = test system: LOX IMVI
NCI-H460 = test system: NCI-H460
HOP-92 = test system: HOP-92
SNB-78 = test system: SNB-78
SK-OV-3 = test system: SK-OV-3
HCC 2998 = test system: HCC 2998
OVCAR-8 = test system: OVCAR-8
HCT-116 = test system: HCT-116
UACC-62 = test system: UACC-62
MCF7 = test system: MCF7
SW-620 = test system: SW-620
SK-MEL-2 = test system: SK-MEL-2
SK-MEL-5 = test system: SK-MEL-5
SF-295 = test system: SF-295
HCT-15 = test system: HCT-15
SN12C = test system: SN12C
UO-31 = test system: UO-31
DU-145 = test system: DU-145
KM12 = test system: KM12
HOP-62 = test system: HOP-62
M19-MEL = test system: M19-MEL
SNB-75 = test system: SNB-75
CCRF-CEM = test system: CCRF-CEM
IGROV-1 = test system: IGROV-1
M14 = test system: M14
HT-29 = test system: HT-29
NCI/ADR-RES = test system: NCI/ADR-RES
DMS-273 = test system: DMS-273
HOP-18 = test system: HOP-18
RXF 631 = test system: RXF 631
MDA-MB-231 = test system: MDA-MB-231
SF-539 = test system: SF-539
NCI-H522 = test system: NCI-H522
HL-60 = test system: HL-60
NCI-H23 = test system: NCI-H23
SR = test system: SR
K562 = test system: K562
CAKI-1 = test system: CAKI-1
LXFL 529 = test system: LXFL 529
A549 = test system: A549
ACHN = test system: ACHN

With `CN(C)CC1CC/C(=C\c2ccc3c(c2)OCO3)C1=O` (stereo not drawn) the GI50 (SF-268) was 11.2 µM (inactive), the GI50 (786-0) was 6.85 µM (inactive) and the GI50 (MDA-N) was 4.42 µM (inactive). The GI50 (SNB-19) was 16.2 µM (inactive), the GI50 (UACC-257) was 8.97 µM (inactive) and the GI50 (OVCAR-5) was 18 µM (inactive). The GI50 (TK-10) was 11.1 µM (inactive), the GI50 (COLO 205) was 8.49 µM (inactive) and the GI50 (XF498) was 18.3 µM (inactive). For the same compound, the GI50 (Malme-3M) was 9.46 µM (inactive), the GI50 (NCI-H226) was 20.4 µM (inactive) and the GI50 (RPMI-8226) was 1.85 µM (inactive). The GI50 (EKVX) was 18.9 µM (inactive), the GI50 (DLD-1) was 6.84 µM (inactive) and the GI50 (OVCAR-4) was 9.29 µM (inactive). For the same compound, the GI50 (U-251) was 18.3 µM (inactive), the GI50 (KM-20L2) was 19.7 µM (inactive) and the GI50 (OVCAR-3) was 7.74 µM (inactive). For the same compound, the GI50 (DMS-114) was 18.4 µM (inactive), the GI50 (MDA-MB-435) was 1.93 µM (inactive) and the GI50 (A498) was 19 µM (inactive). The GI50 (SK-MEL-28) was 10.5 µM (inactive), the GI50 (MOLT-4) was 2.98 µM (inactive) and the GI50 (Hs-578T) was 4.38 µM (inactive). The GI50 (BT-549) was 11.2 µM (inactive), the GI50 (PC-3) was 13.6 µM (inactive) and the GI50 (RXF 393) was 15.7 µM (inactive). For the same compound, the GI50 (LOX IMVI) was 1.95 µM (inactive), the GI50 (NCI-H460) was 19.5 µM (inactive) and the GI50 (HOP-92) was 15.1 µM (inactive). The GI50 (SNB-78) was 21.8 µM (inactive), the GI50 (SK-OV-3) was > 43.1 µM (inactive) and the GI50 (HCC 2998) was 22.1 µM (inactive). For the same compound, the GI50 (OVCAR-8) was 8.61 µM (inactive), the GI50 (HCT-116) was 6.75 µM (inactive) and the GI50 (UACC-62) was 16.7 µM (inactive). For the same compound, the GI50 (MCF7) was 3.96 µM (inactive), the GI50 (SW-620) was 6.4 µM (inactive) and the GI50 (SK-MEL-2) was 13 µM (inactive). For the same compound, the GI50 (SK-MEL-5) was 14.2 µM (inactive), the GI50 (SF-295) was 23.1 µM (inactive) and the GI50 (HCT-15) was 6.67 µM. For the same compound, the GI50 (SN12C) was 7.89 µM (inactive), the GI50 (UO-31) was 10.6 µM (inactive) and the GI50 (DU-145) was 7.66 µM (inactive). For the same compound, the GI50 (KM12) was 6.79 µM (inactive), the GI50 (HOP-62) was > 51.6 µM (inactive) and the GI50 (M19-MEL) was 16.4 µM (inactive). For the same compound, the GI50 (SNB-75) was 5.53 µM (inactive), the GI50 (CCRF-CEM) was 2.79 µM (inactive) and the GI50 (IGROV-1) was 9.75 µM (inactive). The GI50 (M14) was 7.4 µM (inactive), the GI50 (HT-29) was 14.5 µM (inactive) and the GI50 (NCI/ADR-RES) was 2.79 µM (inactive). The GI50 (DMS-273) was 16.8 µM (inactive), the GI50 (HOP-18) was 15.9 µM (inactive) and the GI50 (RXF 631) was 12.7 µM (inactive). The GI50 (MDA-MB-231) was 2.38 µM (inactive), the GI50 (SF-539) was 16.3 µM (inactive) and the GI50 (NCI-H522) was 3.89 µM (inactive). For the same compound, the GI50 (HL-60) was 2.56 µM (inactive), the GI50 (NCI-H23) was 9.62 µM (inactive) and the GI50 (SR) was 2.82 µM (inactive). For the same compound, the GI50 (K562) was 2.83 µM (inactive), the GI50 (CAKI-1) was 8.89 µM (inactive) and the GI50 (LXFL 529) was 12.6 µM (inactive). For the same compound, the GI50 (A549) was 28.2 µM (inactive) and the GI50 (ACHN) was 13.9 µM (inactive).
